Experimental data as given in publication PMC5026118 (Journal of pharmaceutical sciences, 2016).

Experiment: Aqueous solubility determination at room temperature
Format: physicochemical
Conditions: water; for log Sw (mg/ml) / Sw (log) Experimental: aqueous solubility of the hydrate, room temperature; for Sw (log) Experimental: value in brackets

SMILES | log Sw (mg/ml) [log mg/ml] | Sw (log) Experimental [log mg/ml] | solubility thermodynamic at 48 h (thermodynamic from solid) [µg/mL]
O=c1c(O)c(-c2cc(O)c(O)c(O)c2)oc2cc(O)cc(O)c12 [Myricetin, Myricetin (MYR) monohydrate] | −3.19 | −3.19 | 
Sc1ncnc2nc[nH]c12 [Mercaptopurine, mercaptopurine monohydrate] | −0.93 | −0.93 | 120
